Experimental data: patent publication US4528194A, “2-(4-Diphenylmethylpiperazinyl)-1-phenyl alkanol or their salts, a process for their production and a cerebral circulation-improving drug” (Nippon Chemiphar Co., Ltd., priority 1982, dated 1985)
Structures can show the parent of a compound that is named as a salt. Where two headings read alike, the source gives them in different places.

How the values were obtained:
[1] = system: platelets (ADP-induced coagulation); experiment: Test 2: Platelet Anti-coagulating Effect, ADP-induced coagulation; type: in vivo, Male Wistar rats; conditions: Rattus norvegicus, 250 mg/kg oral, rats, 3 hours after administration, ADP 2.7 uM, read-out: Inhibition percentage, ADP (2.7 uM)
Experimental: (§1) Male Wistar rats each having a body weight of about 300 g were orally administered with the test compounds. With the lapse of 3 hours after administration of the compound, each rate was anesthetized with ether, and the blood was collected from its abdominal vein. […] The blood was centrifuged at 1,000 rpm for 10 minutes. The resultant platelet-rich plasma (PRP) was centrifuged for further 10 minutes at 3,000 rpm, thereby collecting a platelet-poor plasma (PPP).
(§2) ADP or collagen was added to the PRP obtained above to induce coagulation, and the thus coagulated platelets were measured by turbidimetry using a platelet aggregation tracer ("PAT-4A", tradename of Niko Kizai Kabushiki Kaisha, Japan). The coagulation inhibition percentage was determined by the following equation: [formula] A: Maximum percentage of coagulation when a compound was administered B: Maximum percentage of coagulation when physiological saline was administered

[2] = Test 3: Acute Toxicity, oral, rats; conditions: rat, in vivo, 7 days observation
Experimental: (§3) Certain test compounds of the invention were administered orally to SD-strain female or male rats each having a body weight of 150 to 200 g of ddN-strain male mice each having a body weight of about 20 g.

[3] = system: vertebral blood flow and femoral blood flow; experiment: Test 1: Peripheral Vasodilating Effect; type: in vivo, Mongrel dogs; conditions: 1 mg/kg i.v.; for Percentage of vertebral blood flow increase / Percentage of vertebral blood flow increase against percentage of femoral blood flow increase: anesthetized dogs, 5% aqueous tartaric acid solution, except compounds footnoted: (1) dimethylsulfoxide, (2) distilled water, (3) physiological saline
Experimental: Mongrel dogs of both sexes each weighing about 10 kg were anesthetized with sodium pentobarbital (35 mg/kg, i.v.). Artificial respiration was performed with room air. The vertebral blood flow and femoral blood flow were measured by an electromagnetic flowmeter (Nihon Koden, MF-27) with flow probes. The blood pressure and heart rate were measured at the same time. For intravenous administration of each compound (1 mg/kg), the cephalic vein was cannulated and the compound solution injected.

[4] = system: platelets (collagen-induced coagulation); experiment: Test 2: Platelet Anti-coagulating Effect, collagen-induced coagulation; type: in vivo, Male Wistar rats; conditions: Rattus norvegicus; for inhibition at 250 mg/kg: 250 mg/kg oral, collagen 17.4 ug/ml, read-out: Inhibition percentage, Collagen (17.4 ug/ml)
Experimental: as §1, §2

[5] = Test 3: Acute Toxicity, oral, mice; conditions: mouse, in vivo, 7 days observation
Experimental: as §3

[6] = 200 mg/kg oral, rats, 3 hours after administration, collagen 6.25 ug/ml, read-out: Inhibition percentage, Collagen (6.25 ug/ml)
[7] = rats, 3 hours after administration
[8] = footnote * of Table 1, dogs, in dimethylsulfoxide

C[C@@H]([C@H](O)c1ccc(O)cc1)N1CCN(C(c2ccccc2)c2ccccc2)CC1 (relative stereo) [Inventive compound 2, dl-erythro-2-(4-Diphenylmethylpiperazinyl)-1-(4-hydroxyphenyl)propanol.1/2tartrate]
inhibition at 250 mg/kg [1]: 16%
LD50 at 168 h [2]: > 2000 mg/kg
Percentage of vertebral blood flow increase [3]: 66%
Percentage of vertebral blood flow increase against percentage of femoral blood flow increase [3]: 3.5
inhibition at 200 mg/kg [4, 6]: 40%
inhibition at 250 mg/kg [4, 7]: 17%

C[C@@H]([C@@H](O)c1ccc(O)cc1)N1CCN(C(c2ccccc2)c2ccccc2)CC1 (relative stereo) [Inventive compound 3, dl-threo-2-(4-Diphenylmethylpiperazinyl)-1-(4-hydroxyphenyl)propanol.tartrate]
Percentage of vertebral blood flow increase [3]: 60%
Percentage of vertebral blood flow increase against percentage of femoral blood flow increase [3]: 3.2

C[C@@H]([C@@H](O)c1ccc(OCc2ccccc2)cc1)N1CCN(C(c2ccccc2)c2ccccc2)CC1 (relative stereo) [Inventive compound 6, dl-threo-1-(4-Benzyloxyphenyl)-2-(4-diphenylmethylpiperazinyl)propanol.dihydrochloride]
Percentage of vertebral blood flow increase [3]: 96%
Percentage of vertebral blood flow increase against percentage of femoral blood flow increase [3]: 8.5

CC(=O)Oc1ccccc1C(=O)O [Aspirin, reference compound]
inhibition at 200 mg/kg ([4]; read-out: inhibition against collagen): 99%

Oc1ccc(C(O)CN2CCN(C(c3ccccc3)c3ccccc3)CC2)cc1 (stereo not shown) [Inventive compound 1, 2-(4-Diphenylmethylpiperazinyl)-1-(4-hydroxyphenyl)ethanol.monohydrochloride]
inhibition at 250 mg/kg [1]: 28%
LD50 at 168 h [2]: > 2000 mg/kg
Percentage of vertebral blood flow increase [3]: 76%
Percentage of vertebral blood flow increase against percentage of femoral blood flow increase [3]: 3.6
inhibition at 200 mg/kg [4, 6]: 81%
inhibition at 250 mg/kg [4, 7]: 25%

OC(CN1CCN(C(c2ccccc2)c2ccccc2)CC1)c1ccc(OCc2ccccc2)cc1 (stereo not shown) [Inventive compound 4, 1-(4-Benzyloxyphenyl)-2-(4-diphenylmethylpiperazinyl)ethanol.monohydrochloride]
LD50 at 168 h [5]: > 2000 mg/kg
Percentage of vertebral blood flow increase [3]: 90%
Percentage of vertebral blood flow increase against percentage of femoral blood flow increase [3]: 5.8

OC(CN1CCN(C(c2ccccc2)c2ccccc2)CC1)c1ccc(OCc2ccccc2)cc1OCc1ccccc1 (stereo not shown) [Inventive compound 5, 1-(2,4-Dibenzyloxyphenyl)-2-(4-diphenylmethylpiperazinyl)ethanol.monohydrochloride]
LD50 at 168 h [5]: > 2000 mg/kg
Percentage of vertebral blood flow increase [3]: 62%
Percentage of vertebral blood flow increase against percentage of femoral blood flow increase [3]: 15.3
blood flow increase, course [3, 8]: increased in two phases
increased blood flow lasted for [3, 8]: 30 min

COc1ccc(C(O)CN2CCN(C(c3ccccc3)c3ccccc3)CC2)c(OC)c1 (stereo not shown) [Inventive compound 7, 1-(2,4-Dimethoxyphenyl)-2-(4-diphenylmethylpiperazinyl)ethanol.dihydrochloride]
LD50 at 168 h [5]: 350 mg/kg
Percentage of vertebral blood flow increase [3]: 123%
Percentage of vertebral blood flow increase against percentage of femoral blood flow increase [3]: 5.8

COc1ccc(C(O)CN2CCN(C(c3ccccc3)c3ccccc3)CC2)cc1OC (stereo not shown) [Inventive compound 8, 1-(3,4-Dimethoxyphenyl)-2-(4-diphenylmethylpiperazinyl)ethanol.dihydrochloride]
LD50 at 168 h [5]: 470 mg/kg
Percentage of vertebral blood flow increase [3]: 84%
Percentage of vertebral blood flow increase against percentage of femoral blood flow increase [3]: 15.3

COc1ccc(C(O)CN2CCN(C(c3ccccc3)c3ccccc3)CC2)c(OC)c1OC (stereo not shown) [Inventive compound 9, 2-(4-Diphenylmethylpiperazinyl)-1-(2,3,4-trimethoxyphenyl)ethanol.dihydrochloride]
LD50 at 168 h [5]: 1230 mg/kg
Percentage of vertebral blood flow increase [3]: 124%
Percentage of vertebral blood flow increase against percentage of femoral blood flow increase [3]: 6.1
inhibition at 200 mg/kg [4, 6]: 90%

COc1cc(C(O)CN2CCN(C(c3ccccc3)c3ccccc3)CC2)cc(OC)c1OC (stereo not shown) [Inventive compound 10, 2-(4-Diphenylmethylpiperazinyl)-1-(3,4,5-trimethoxyphenyl)ethanol.monohydrochloride]
LD50 at 168 h [5]: > 2000 mg/kg
Percentage of vertebral blood flow increase [3]: 95%
Percentage of vertebral blood flow increase against percentage of femoral blood flow increase [3]: 4.6

C=CCOc1ccc(C(O)CN2CCN(C(c3ccccc3)c3ccccc3)CC2)cc1 (stereo not shown) [Inventive compound 11, 1-(4-Allyloxyphenyl)-2-(4-diphenylmethylpiperazinyl)ethanol.monohydrochloride]
LD50 at 168 h [5]: > 2000 mg/kg
Percentage of vertebral blood flow increase [3]: 93%
Percentage of vertebral blood flow increase against percentage of femoral blood flow increase [3]: 2.0

C=CCOc1cc(OC)ccc1C(O)CN1CCN(C(c2ccccc2)c2ccccc2)CC1 (stereo not shown) [Inventive compound 12, 1-(2-Allyloxy-4-methoxyphenyl)-2-(4-diphenylmethylpiperazinyl)ethanol.dihydrochloride]
Percentage of vertebral blood flow increase [3]: 123%
Percentage of vertebral blood flow increase against percentage of femoral blood flow increase [3]: 7.7

Oc1ccccc1C(O)CN1CCN(C(c2ccccc2)c2ccccc2)CC1 (stereo not shown) [compound 1, 2-(4-Diphenylmethylpiperazinyl)-1-(2-hydroxyphenyl)ethanol.monohydrochloride, reference compound]
Percentage of vertebral blood flow increase [3]: 26%
Percentage of vertebral blood flow increase against percentage of femoral blood flow increase [3]: 1.2

OC(CN1CCN(C(c2ccccc2)c2ccccc2)CC1)c1ccccc1 (stereo not shown) [compound 2, 2-(4-Diphenylmethylpiperazinyl)-1-phenylethanol.dihydrochloride, reference compound]
Percentage of vertebral blood flow increase [3]: 25%
Percentage of vertebral blood flow increase against percentage of femoral blood flow increase [3]: 1.3

CC(O)(CN1CCN(C(c2ccccc2)c2ccccc2)CC1)c1ccccc1 (stereo not shown) [compound 3, 2-(4-Diphenylmethylpiperazinyl)-1-methyl-1-phenylethanol.dihydrochloride, reference compound]
Percentage of vertebral blood flow increase [3]: 20%
Percentage of vertebral blood flow increase against percentage of femoral blood flow increase [3]: 1.1

CN(C)CCCOC1(Cc2ccccc2)CCCCCC1 [compound 4, Bencyclane fumarate, reference compound]
inhibition at 250 mg/kg [1]: 0%
Percentage of vertebral blood flow increase [3]: 67%
Percentage of vertebral blood flow increase against percentage of femoral blood flow increase [3]: 2.9
inhibition at 250 mg/kg [4, 7]: 0%

C(=C\c1ccccc1)/CN1CCN(C(c2ccccc2)c2ccccc2)CC1 [compound 5, Cinnarizine, reference compound]
Percentage of vertebral blood flow increase [3]: 60%
Percentage of vertebral blood flow increase against percentage of femoral blood flow increase [3]: 2.5
